Results taken from patent US20150140015A1, “METHODS AND PHARMACEUTICAL COMPOSITIONS FOR THE TREATMENT OF PANCREATIC CANCER” (INSERM (Institut National de la Sante et de la Recherche …, priority 2013, published 2015).

What was measured:
[1] = system: HPAF-II cells expressing recombinant OX1R; experiment: Quantification of apoptotic cells by annexin V-PE labeling in recombinant OX1R/HPAF-II cells; format: cell-based, human; settings: OX1R-expressing HPAF-II cells; NSC-87877 50 μM with 1 μM orexin-A
Procedure: FIGS. 5A and B. Effect of orexin-A on apoptosis in OX1R expressing recombinant OX1R/HPAF-II cells. A, Parental HPAF-II and recombinant OX1R/HPAF-II cells were challenged with (black bars) or without (white bars) 1 μM orexin-A for 48 hr in the absence or presence of the SHP-2 protein tyrosine phosphatase inhibitor, NSC-87877 (50 μM). Apoptosis was measured by determination of annexin V-PE binding. Results are expressed as the percentage of apoptotic cells, and are the means±SE of three separate experiments. ***p<0.001; ns, non-significant; B, paraformaldehyde-fixed HPAF-II cells and recombinant OX1R/HPAF-II cells were challenged with or without (Basal) 1 μM orexin-A for 48 hr. Indirect immunostaining of activated caspase-3 in parental HPAF-II cells (left panels) and recombinant OX1R/HPAF-II cells (right panels) in the presence (bottom panels) or tabsence (top panels) of orexin-A is illustrated in B. […]
AsPC-1, SW 1990, HPAF-II and HPAF-II/hOX1R cells (seeded at 5×10^4 cells/well) were grown in 24-well plates for 24 hr under the culture conditions described above. […] Results are expressed as the percentage of apoptotic phycoerythrin-labelled Annexin V (Annexin V-PE) positive cells and are the means of 3 independent analyses.

parental HPAF-II cells = experiment: Quantification of apoptotic cells by annexin V-PE labeling in parental HPAF-II cells; format: cell-based, human; settings: parental HPAF-II cells; NSC-87877 50 μM
Procedure: FIGS. 5A and B. Effect of orexin-A on apoptosis in OX1R expressing recombinant OX1R/HPAF-II cells. A, Parental HPAF-II and recombinant OX1R/HPAF-II cells were challenged with (black bars) or without (white bars) 1 μM orexin-A for 48 hr in the absence or presence of the SHP-2 protein tyrosine phosphatase inhibitor, NSC-87877 (50 μM). Apoptosis was measured by determination of annexin V-PE binding. Results are expressed as the percentage of apoptotic cells, and are the means±SE of three separate experiments. ***p<0.001; ns, non-significant; B, paraformaldehyde-fixed HPAF-II cells and recombinant OX1R/HPAF-II cells were challenged with or without (Basal) 1 μM orexin-A for 48 hr. Indirect immunostaining of activated caspase-3 in parental HPAF-II cells (left panels) and recombinant OX1R/HPAF-II cells (right panels) in the presence (bottom panels) or tabsence (top panels) of orexin-A is illustrated in B.
(§1) AsPC-1, SW 1990, HPAF-II and HPAF-II/hOX1R cells (seeded at 5×10^4 cells/well) were grown in 24-well plates for 24 hr under the culture conditions described above. The culture medium was then replaced every 24 hr with fresh medium with or without orexin-A (GL Biochemicals) at a concentration of 1 μM in the presence or absence of the SHP-2 inhibitor, NSC-87877 (50 μM) (Calbiochem, VWR International SAS, France). At the end of the treatment (48 hr), apoptotic cells were determined using the Guava Nexin™ kit (Guava Technologies, Hayward, Calif., USA), which discriminates between apoptotic and non-apoptotic cells (Rouet-Benzineb P, Rouyer-Fessard C, Jarry A, et al. Orexins Acting at Native OX1 Receptor in Colon Cancer and Neuroblastoma Cells or at Recombinant OX1 Receptor Suppress Cell Growth by Inducing Apoptosis. J Biol Chem 2004; 279:45875-86), analyzed with the Guava Personal Cell Analysis (PCA) system (Merck-Millipore, Guyancourt, France), and counted (2,000 events) (Voisin et al, 2008, as above). Results are expressed as the percentage of apoptotic phycoerythrin-labelled Annexin V (Annexin V-PE) positive cells and are the means of 3 independent analyses.

AsPC-1 cells [2] = experiment: Quantification of apoptotic cells by annexin V-PE labeling in AsPC-1 cells; format: cell-based, human; settings: 48 hr; for effect of SHP-2 inhibitor on orexin-induced apoptosis: AsPC-1 cells, NSC-87877 50 μM with 1 μM orexin-A
Procedure: FIG. 4A-C. Effect of orexin-A on apoptosis in AsPC-1 cells. A, SHP-2 protein tyrosine phosphatase inhibitor, NSC-87877, blocks orexin-induced apoptosis. AsPC-1 cells were challenged with (black bars) or without (white bars) 1 μM orexin-A for 48 hr in the absence or presence of NSC-87877 (50 μM). Apoptosis was measured by determination of annexin V-PE binding, and results are expressed as the percentage of apoptotic cells; B and C: Indirect immunostaining of activated caspase-3 in AsPC-1 cells in the presence or absence of orexin-A. Paraformaldehyde-fixed AsPC-1 cells were challenged with (orexin-A) or without (basal) 1 μM orexin-A for 48 hr. Activated caspase-3 immunostaining is shown in B and scored in C. Results are means±SE of three separate experiments. ***p<0.001; ns, non-significant.
as §1

[3] = system: HEK stably expressing OX1R (HEK-OX1R); experiment: Cell growth of HEK-OX1R cells (cell counting); format: cell-based; settings: 0.1 μM, 48 h
Procedure: The development of antibodies directed against OX1R were produced by a phage display strategy and the antibody selection was performed by using HEK and HEK stably expressing OX1R (HEK-OX1R) cell lines. […] Cells were incubated with 0.1 μM of OxB or antibodies for 48 h in culture medium and then cells were counted in order to estimate the cellular growth. […] We have tested the ability of antibodies to inhibit the cellular growth in cancer cell lines derived from and pancreas cancer (AsPC-1 cells).

AsPC-1 cells [4] = experiment: Cell growth of AsPC-1 cells (cell counting); format: cell-based, human; settings: 0.1 μM, 48 h; AsPC-1 cells (FIG. 9)
Procedure: FIG. 9. Effect of Orexin-B anti-OX1R antibodies on cell growth of AsPC-1 cells. Cells were incubated with 0.1 μM of OxB or antibodies for 48 h in culture medium and then cells were counted in order to estimate the cellular growth.
The aims of this study were: 1/ to investigate the presence of OX1R in human PAC cell lines and to analyze orexin-A effects in relation to apoptosis; 2/ to develop an in vivo heterotopic xenograft model from the cell lines expressing OX1R, for the study of tumor growth in response to Orexin-A. The expression of OX1R was studied at mRNA (RT-PCR), proteins (immunocytochemistry) and functional levels in 3 PAC cell lines (AsPC-1, HPAF-II and SW1990). The development of an animal model (heterotopic xenograft) from the cell line expressing OX1R, has allowed studying the effect of Orexin-A in tumor growth. Resected tumors were analyzed by immunohistochemistry. Only AsPC-1 cell line expresses OX1R.
The development of antibodies directed against OX1R were produced by a phage display strategy and the antibody selection was performed by using HEK and HEK stably expressing OX1R (HEK-OX1R) cell lines. […] Cells were incubated with 0.1 μM of OxB or antibodies for 48 h in culture medium and then cells were counted in order to estimate the cellular growth. […]

| Compound | effect of SHP-2 inhibitor on orexin-A-induced apoptosis [1] | effect of SHP-2 inhibitor on apoptosis (parental HPAF-II cells) | effect of SHP-2 inhibitor on orexin-induced apoptosis (AsPC-1 cells [2]) | effect of SHP-2 inhibitor on orexin-induced apoptosis (AsPC-1 cells [2]; listed as NSC 87877) | percentage of apoptotic cells (annexin V-PE) (AsPC-1 cells [2]; NSC 87877 (50 μM) in the absence of orexin-A) | percentage of apoptotic cells (annexin V-PE) (AsPC-1 cells [2]; NSC 87877 (50 μM) in the presence of 1 μM orexin-A) | reduction of HEK-OX1R cell number [3] [%] | inhibition of cell growth (AsPC-1 cells [4]) |
| --- | --- | --- | --- | --- | --- | --- | --- | --- |
| O=S(=O)(O)c1ccc2cc(N=Nc3cc(S(=O)(=O)O)c4cccnc4c3O)ccc2c1 [NSC-87877] | totally abolished | no effect | reverse orexin-induced apoptosis | totally abolished | 4.6%±0.9 | 4.8%±0.5 |  |  |
| orexin-B: 28 amino acid hypothalamic neuropeptide, SEQ ID NO:3 |  |  |  |  |  |  | 40±3 | able to inhibit the cell growth |
